What was measured:
[1] = Phase 3 clinical trials; cited from earlier work
[2] = tested on: native stop codons (TAA, TAG, TGA), 3′UTR ribosome density; test: Ribosome footprint profiling of transcriptome-wide 3′UTRs, HEK293 cells; assay type: cell-based, human
Source text: The question was raised whether ACE-tRNAs that show efficacious suppression of premature stop codons may also induce global readthrough of native stop codons. To address this potential “off target” suppression, a transcriptome-wide quantitative profile of actively engaged ribosomes on all cellular transcripts was obtained by generating libraries of ribosome footprints from HEK293 cells expressing exogenous ACE-tRNAs or a control mock plasmid (puc57GG). Streptomycin was removed from the growth media to prevent readthrough artifacts. For comparison, the ribosome footprint library was also generated from cells in the presence or absence of G418 (150 μM, 48 h). […] Only transcripts with a minimum threshold of 5 RPKM in the coding sequence and 0.5 RPKM in the 3′UTR in two replicate libraries were included for the quantitation comparison (254 transcripts in G418 and 495-748 transcripts in ACE-tRNAs). […] ACE-tRNAs examined here had no detectable change of 3′UTR ribosome density with the exception of ACE-tRNA Gln-UAA and Arg-UGA which induced approximately a 2-fold increase in 3′UTR ribosome density for the cognate stop codon complimentary to the ACE-tRNA anticodon. Understanding the biological significance of 2-fold readthrough of protein stops will require further study, but this effect is substantially lower compared to the 100- to 1000-fold suppression of PTC for the same ACE-tRNA.
Multiple in-frame stop codons are frequently found at the end of genes 37-39 and may cause a minor difference in overall 3′UTR ribosome density for ACE-tRNA and G418 treatment. Ribosome occupancy was examined at each nucleotide in the 3′UTR within a 60 nt region downstream of the stop codons. […] Reads were normalized per total million-mapped reads, compared against control cells, and reported as a log 2-fold change as in panel A. More than 5,200 transcripts were mapped to at least 1 footprint in the region of interest. […] Taken together, the ribosome profiling data argue that efficiency of native stop codon suppression by ACE-tRNAs is generally low, and markedly less than the level of PTC suppression.
Ribosome Footprint Profiling Library preparation. HEK293 cells transiently transfected with ACE-tRNAs and control plasmid (puc57GG) were grown in standard grown media in the absence of Pen-Strep for 48 h. Libraries were prepared as described^55, with a few modifications. Briefly, cells were rapidly cooled by addition of ice-cold PBS, lysed in lysis buffer (20 mM Tris-HCl/pH7.4, 150 mM NaCl, 5 mM MgCl2, 1 mM DTT, 1% (v/v) Triton X-100, and 25 U ml^−1 Turbo DNase I) for 10 min on ice, and triturated with ten times through a 26-G needle. […]

NLuc-UGA PTC reporter = test: NanoLuc nonsense reporter screen of ACE-tRNA, UGA (TGA) PTC, HEK293 cells; assay type: cell-based, human; conditions: t-stem variants, luciferase 24 hours post-transfection, HEK cells
Source text: Several different nonsense mutations cause CF, thus underlying roughly 10% of all CF disease. FIG. 7. These cases are concentrated into […] specific genetic lesions: E60X, R75X, G542X, R553X, Q890X, Y1092X, R1158X, R1162X and W1282X. We propose that it should be feasible, with the right approach, to screen existing human tRNA sequences for modification and tolerance to anti-codon editing. To this end, roughly 144 ACE-tRNAs were candidates to test for those that could be used to promote the repair of the disease causative nonsense codon and the expression of the full-length protein. Specifically, using the scheme described in FIG. 11, tRNA libraries were generated to identify novel tRNA sequences that encode for ACE tRNA with the ability to repair the top CF causative nonsense mutations. Specifically, 10 ng of annealed oligos encoding the ACE-tRNAs were combined with 50 ng of NanoLuc reporter plasmid, 1 ul 10× CutSmart Buffer (NEB), 1 ul T4 ligase (NEB), 10 mM ATP and 1 ul BbsI (NEB) and cycled in a thermocycler as described in FIG. 11. 1 ul of the reaction was transformed into competent E. coli and the transformants were plated on ampicillin agar plates. […]
Screening studies were first performed to identify the best ACE-tRNA Candidates from tryptophan and glycine. […] Plates were read on a SpectraMax i3 (Molecular Devices). […]

In the case of `O=C(O)c1cccc(-c2noc(-c3ccccc3F)n2)c1` [Ataluren], the “efficacy in patient populations” value [1] is listed as “unexpectedly low efficacy”.

For `CN[C@@H]1[C@@H](O)[C@@H](O[C@@H]2[C@@H](O)[C@H](O[C@H]3O[C@H]([C@@H](C)O)[C@@H](O)[C@H](O)[C@H]3N)[C@@H](N)C[C@H]2N)OC[C@]1(C)O` [G418, reference compound], the “effect on transcriptome-wide 3′UTR ribosome density” value ([2]; G418 150 μM, 48 h, ACE-tRNAs transiently transfected) was “no observable effect on transcriptome-wide 3′UTR ribosome density” and the “ribosome occupancy in the early region of 3′UTR downstream of stop codons” value ([2]; per nucleotide, -35 to +65 nt) was “no observable change of ribosome occupancy”.

B1: TS-38 52-62 G-C: t-stem variant of Trpchr17.trna39, SEQ ID NO: 3 (nucleic acid)
chain: GGCCUCGUGGCGCAACGGUAGCGCGUCUGACUUCAGAUCAGAAGGUUCCGGGUUCAAAUCCCGGCGGGGUCA
modifications: expressed or natural sequence
With B1 the “increase of suppression activity relative to Trpchr17.trna39” value (NLuc-UGA PTC reporter) was “roughly 250%”.

B2: TS-10 52-62 G-C: t-stem mutant of Trpchr17.tRNA 39, FIG. 12B, SEQ ID NO: 589 (nucleic acid)
chain: GACCUCGUGGCGCAACGGUUAGCGCGUCUGACUUCAGAUCAGAAGGCUCCGGGUUCGAAUCCCGGCGGGGUCA
modifications: expressed or natural sequence
In the case of B2, the “increase of suppression activity relative to Trpchr17.trna39” value (NLuc-UGA PTC reporter) is reported as about 250%.
